Source: patent US20260085293A1, “SOLUTION AND METHOD FOR TRANSPORTING OR STORING BODY FLUID SAMPLE” (PROVIGATE INC., priority 2023, published 2026)

Tested on: glycoalbumin
Assay: Relative GA value of diluted pool serum with active ingredient after 2 days at 37° C., assayed by HPLC
Parameters: species or system human
Description: Examples will now be described. Blood samples were diluted with diluents containing active ingredients according to the embodiments of the present disclosure, and the GA values thereof were assayed by HPLC on the same day and after two days.
First, a solution containing 10 mM of HEPES and 150 mM of NaCl was prepared. The pH was 8.0. Into this solution, an active ingredient was mixed to prepare a diluent.
In Examples 1 to 4, pool serum was used as the blood samples. The pool serum was prepared by isolating serum from venous blood taken from multiple healthy subjects and then mixing. The resulting product was mixed with the diluent described above. Into 90 μL of the diluent, 10 μL of the blood serum was introduced to prepare a 10-fold dilution (10×) assay sample.
The sample was assayed on the same day (“day 0”) or was stored in a 37° C. constant temperature reservoir for two days (“day 2”) and then assayed.
For the assay conditions, “GA detection by HPLC method” J Chromatogr 597, 271-275 (1992) was referred. Columns used were AEX:Shodex-Asahipak ES-502N (7.5 mm ID ×100 mm) (Showa Denko K.K.) and BAC:TSKgel Boronate-5PW (4.6 mm ID×100 mm) (TOSOH CORPORATION). The eluents used were glycine (JIS special grade), magnesium chloride hexahydrate (JIS special grade), D(−)-sorbitol (Wako 1st grade), ethanol (99.5%, JIS special grade), tris(hydroxymethyl)aminomethane (Tris, Biotechnology grade), and EDTA-2Na. For the analysis, Prominence HPLC system (Shimadzu Corporation) equipped with a system controller was used.
In the graphs indicated in FIGS. 2 to 5, the vertical axis indicates the ratio (relative GA value) of the GA value assayed two days (day 2) after the preparation to the GA value measured on the same day (day 0) as the preparation. When assay was carried out multiple times, the average value is indicated.
Each of the additives was dissolved in the diluent to a predetermined concentration (0.1% to 0.5%) in w/v. For example, specifically, 570 μL of the diluent containing each additive was added to 30 μL of pool serum to prepare a 20× diluted liquid. The GA% of the day 0 sample and that of the day 2 sample left to stand still for 2 days in a 37° C. constant temperature reservoir were assayed by using HPLC.

[1] = 0.1 w/v% active ingredient in diluent
[2] = 0.2 w/v% active ingredient in diluent

SMILES | relative GA value (day 2 / day 0) [1] | relative GA value (day 2 / day 0) [2] | relative GA value (day 2 / day 0), in words (0.5 w/v% active ingredient in diluent, not illustrated)
OC[C@H]1O[C@H](O[C@H]2[C@H](O)[C@@H](O)[C@@H](O[C@H]3[C@H](O)[C@@H](O)C(O)O[C@@H]3CO)O[C@@H]2CO)[C@H](O)[C@@H](O)[C@@H]1O (mixture of isomers) [MT, maltotriose] | about 98.2 | about 99.8 | excessively large
CN[C@@H]1[C@@H](O)[C@@H](O[C@@H]2[C@@H](O)[C@H](O[C@H]3O[C@H]([C@@H](C)O)[C@@H](O)[C@H](O)[C@H]3N)[C@@H](N)C[C@H]2N)OC[C@]1(C)O [G418, reference compound] | about 98.2 | about 98.2 | –
CC(=O)N[C@H]1C(O)O[C@H](CO)[C@@H](O)[C@@H]1O[C@H](C)C(=O)O (stereo partly drawn) [NAM, N-acetylmuramic acid] | about 98.5 | about 99.0 | –
[H]/N=C(/N)N[C@H]1[C@H](O)[C@@H](O)[C@H](O[C@@H]2O[C@@H](C)[C@](O)(C=O)[C@H]2O[C@@H]2O[C@@H](CO)[C@H](O)[C@@H](O)[C@@H]2NC)[C@@H](N/C(N)=N\[H])[C@@H]1O [STR, streptomycin, reference compound] | about 100% | about 102% | –
